This note sets out measurements from paper PMC10766610, “DCAF1-based PROTACs with activity against clinically validated targets overcoming intrinsic- and acquired-degrader resistance” (Nature Communications, 2024).

Read-outs that look alike come from different tables or passages of the source.

One series has as its target T1, DCAF1(WDR) (Homo sapiens, UniProt Q9Y4B6, E1398S).
T1 construct: His6 (C); made in house; host or cells: Sf9 insect cells (baculovirus), co-expressed with BirA
Kind of series: SPR, surface immobilized DCAF1(WDR), binary compound binding.

Series [1] can be described thus: Viability by FSC/SSC gate (flow cytometry) in TMD8 BTK-GFP/mCh cells. The settings on record: human, TMD8 BTK-GFP/mCh cells, TMD8 BTK-GFP/mCh, 24 h. The class given is cell-based, human. As to the method:
For flow cytometry measurements, 25,000 exponentially growing TMD8 BTK-GFP/mCh cells were plated in 100 μL of each well of a 96-well plate and grown for 24 h. Cells were then dosed with corresponding compounds and doses from 10 mM DMSO stock for 24 h, after which GFP and mCherry fluorescence was read with a Beckmann Coulter Cytoflex. For competition experiment, both compounds were added at the same time and dosed for 24 h. Cells were gated based on Forward & Side Scatter and selection for Single cells using SSC-A vs. SSC-H. Further, the population of viable cells was defined by the forward & side-scatter characteristics of DMSO-treated cells. […] Effects on viability were measured by the reduction of the percentage of cells included in this viable-population gate with increasing doses of compound tested. Degradation of BTK was calculated based on subtracting background (BG) fluorescence of parental TMD8 signal via (GFP-BG)/(mCherry-BG) of viable cells. Median ratios of three technical (different wells) replicates were used to calculate daily averages. Each compound dose–response was generated via three biological replicates (different days of experiment). Degradation curve parameters (DC50 & Abs. DC50 & max. Deg) were extracted using GraphPad Prism’s 4-parameter logistic curve fitting.
The viability window was determined by measuring the GI50 of viability based on the percentage of cells included in the viable gate and comparing it to the DC50 of degradation. The fold-change difference describing this window is [GI50 Viability / DC50 Degradation], where values above 1 indicate a positive (lower DC50 degradation than AC50 viability) window.
For orientation: Flow cytometry measures light scatter and fluorescence of single cells or particles in a stream.

For series [2], the target named is T2, BTK (Homo sapiens, UniProt Q06187). Kind of series: BTK-GFP degradation by flow cytometry in TMD8 BTK-GFP/mCh cells. On the set-up: performed with full-length BTK and endogenous DCAF1; expressed in transfected cells; host or cells: TMD8 cells, lentiviral, blasticidin-selected (TMD8 BTK-GFP/mCh). The class given is cell-based. To be noted: for DC50 / max. BTK degradation (%): 24 h. As for the experimental part: The bicistronic pLenti6 BTK-GFP-chysel-mCHERRY expression vector was cloned as described[92] using Gateway cloning with a pENTR-BTK plasmid lacking a STOP codon. TMD8 cells were then infected with lentiviral particles from this vector as described above and stably transfected cells were selected with blasticidin at a concentration of 10 μg/mL referred to as TMD8 BTK-GFP/mCh cells.
T2 sequence (Q06187 2-659 limits assumed): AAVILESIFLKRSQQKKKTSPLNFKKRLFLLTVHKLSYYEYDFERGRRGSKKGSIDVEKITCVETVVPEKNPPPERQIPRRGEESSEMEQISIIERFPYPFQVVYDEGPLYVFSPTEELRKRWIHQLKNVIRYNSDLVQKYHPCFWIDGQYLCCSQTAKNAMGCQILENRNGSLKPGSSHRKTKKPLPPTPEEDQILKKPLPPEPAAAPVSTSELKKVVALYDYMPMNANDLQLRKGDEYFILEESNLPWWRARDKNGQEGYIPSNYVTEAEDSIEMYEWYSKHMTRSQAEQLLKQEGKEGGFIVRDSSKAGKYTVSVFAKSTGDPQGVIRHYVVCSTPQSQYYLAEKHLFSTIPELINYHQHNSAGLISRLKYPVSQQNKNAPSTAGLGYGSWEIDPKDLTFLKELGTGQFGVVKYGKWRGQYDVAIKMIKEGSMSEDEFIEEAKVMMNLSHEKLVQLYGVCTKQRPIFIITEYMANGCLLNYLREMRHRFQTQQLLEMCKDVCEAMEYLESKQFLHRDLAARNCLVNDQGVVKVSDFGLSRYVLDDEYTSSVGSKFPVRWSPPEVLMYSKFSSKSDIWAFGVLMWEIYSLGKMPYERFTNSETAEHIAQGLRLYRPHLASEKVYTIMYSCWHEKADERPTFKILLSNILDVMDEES
For flow cytometry measurements, 25,000 exponentially growing TMD8 BTK-GFP/mCh cells were plated in 100 μL of each well of a 96-well plate and grown for 24 h. Cells were then dosed with corresponding compounds and doses from 10 mM DMSO stock for 24 h, after which GFP and mCherry fluorescence was read with a Beckmann Coulter Cytoflex. For competition experiment, both compounds were added at the same time and dosed for 24 h. Cells were gated based on Forward & Side Scatter and selection for Single cells using SSC-A vs. SSC-H. Further, the population of viable cells was defined by the forward & side-scatter characteristics of DMSO-treated cells. To confirm cells outside of this population as non-viable, cells were plated and treated for 24 h, washed with PBS and stained for 30 min with two markers of early (Annexin-V) and late (LIVE/DEAD) apoptosis. Effects on viability were measured by the reduction of the percentage of cells included in this viable-population gate with increasing doses of compound tested. Degradation of BTK was calculated based on subtracting background (BG) fluorescence of parental TMD8 signal via (GFP-BG)/(mCherry-BG) of viable cells. Median ratios of three technical (different wells) replicates were used to calculate daily averages. Each compound dose–response was generated via three biological replicates (different days of experiment). Degradation curve parameters (DC50 & Abs. DC50 & max. Deg) were extracted using GraphPad Prism’s 4-parameter logistic curve fitting.

Series [3] concerns the target T2, BTK. Kind of series: Immunoblot of endogenous BTK in TMD8 cells. The class given is cell-based. On the set-up: performed with full-length BTK and endogenous DCAF1; expressed in transfected cells; host or cells: TMD8 cells, lentiviral, blasticidin-selected (TMD8 BTK-GFP/mCh). As for the experimental part:
Whole cell lysates for immunoblotting were prepared by pelleting cells at 4 °C (300 g) for 3 min. Cell pellets were then washed 1x with PBS and resuspended in RIPA lysis buffer (VWR, cat # 97063-270) supplemented with protease (Thermo Scientific, cat # A32955) and phosphatase (Thermo Scientific, cat # A32957) inhibitor tablets. Lysates were clarified at 16,000 × g for 15 min at 4 °C prior to quantification by Lowry assay (Bio-Rad cat # 5000113 and cat # 5000114). Whole-cell lysates were loaded into 4–20% Criterion TGX Precast 18 well gels (Bio-Rad, cat # 5671094) and separated by electrophoreses at 120 V for 1 h. The gels were transferred to a nitrocellulose membrane using the Trans-Blot Turbo (Bio-Rad) for 7 min and then blocked for 1 h at room temperature in Odyssey blocking buffer (LICOR Biosciences, cat # 927-50000). Membranes were probed with the appropriate primary antibodies (diluted 1:1000) overnight at 4 °C in 20% Odyssey blocking buffer in 1x TBST. Membranes were washed three times with 1x TBST (5 min per wash), and then incubated with IRDye goat anti-mouse (LICOR, cat # 926-32210) or goat anti-rabbit (LICOR, cat # 926-32211) secondary antibody diluted 1:10,000 in 20% Odyssey blocking buffer for 1 h at room temperature. After three 5-min washes with 1x TBST, the immunoblots were visualized using the ODYSSEY Infrared Imaging System (LICOR). Alternatively, SDS-PAGE resolved proteins were transferred to a PVDF membrane using a wet blotting system (Invitrogen). Membranes were blocked in 5% Milk-PBS-Tween 20 for 1 h and incubated with primary antibody over night at 4 °C. Secondary antibodies (secondary antibody: anti-rabbit, goat pAb to Rb-IgG (Abcam, #7090); secondary antibody: anti-mouse, sheep IgG HRP-linked (GE healthcare, #NA931V)) were incubated for 1 h at room temperature (RT) before blots were developed on film using the detection kit SuperSignal West Femto Maximum Sensitivity Substrate (Thermo Fisher, #34096).
(A western blot detects proteins with antibodies after separation by electrophoresis.)

The mark [4] stands for this setting: Fig. 6b, SPR, read-out: KD DCAF1.
[5] abbreviates: Fig. 6b, read-out: DC50 BTK degradation (24h).
The mark [6] stands for this setting: TMD8 BTK-GFP/mCh, read-out: Absolute DC50 BTK-Degradation.
[7] abbreviates: TMD8 BTK-GFP/mCh, read-out: DC50 BTK-Degradation.

T1 sequence (Q9Y4B6 1073-1399 E1398S): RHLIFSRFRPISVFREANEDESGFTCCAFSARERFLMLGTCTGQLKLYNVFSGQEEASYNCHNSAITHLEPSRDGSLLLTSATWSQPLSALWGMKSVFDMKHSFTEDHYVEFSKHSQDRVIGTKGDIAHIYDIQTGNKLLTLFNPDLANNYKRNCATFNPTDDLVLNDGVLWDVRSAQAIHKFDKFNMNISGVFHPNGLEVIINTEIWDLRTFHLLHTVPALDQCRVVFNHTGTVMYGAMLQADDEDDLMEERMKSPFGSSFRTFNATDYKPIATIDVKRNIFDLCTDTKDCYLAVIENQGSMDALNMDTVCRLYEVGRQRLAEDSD

For `COc1cc(-c2cn(C)c(=O)c3cnccc23)c(OC)cc1CN1CCC(OCCCCCC(=O)N2CCN(c3ccc4c(NCCN)nc(C5(c6ccc(Cl)cc6)CCCCC5)nc4c3)CC2)CC1` [DBr-1], at DCAF1(WDR) (binary, compound alone, spread in brackets, read-out: SPR KD), the equilibrium dissociation constant (Kd) was determined as 13 nM.

As for `Cc1c(NC(=O)c2ccc(C(C)(C)O)cc2F)cc(F)cc1-c1ncnc2[nH]c(-c3ccc(CNCCOCCOCCOCCOCCOCCOCCOCCOCCOCCOCCOCCOCCC(=O)N4CCN(c5ccc6c(NCCN)nc(C7(c8ccc(Cl)cc8)CCCCC7)nc6c5)CC4)cc3)cc12` [DBt-5], the Kd at DCAF1(WDR) (setting [4]) stood at 90 nM. Moreover, the GI50 at 24 h in series [1] (read-out: Abs GI50) was found to be 4120 nM; in series [1] (read-out: GI50), 4240 nM. In addition, the “max. BTK degradation (24h, %)” value at BTK [2] (Fig. 6b) turned out to be 100%. Moreover, the 50% degradation concentration (DC50) at BTK [2] (setting [5]), at BTK [2] (setting [6]) and at BTK [2] (setting [7]) was 50 nM in each case. Moreover, the “max. BTK degradation (%)” value at BTK [2] (TMD8 BTK-GFP/mCh) turned out to be 100%.

Turning to `Cc1c(NC(=O)N2CC(O)(CC(C)(C)C)C2)cc(F)cc1-c1ncnc2[nH]c(-c3cnn(CC(=O)N4CCC5(CC4)CN(CCNC(=O)CCCC(=O)N4CCN(c6ccc7c(NCCN)nc(C8(c9ccc(Cl)cc9)CCCCC8)nc7c6)CC4)CCO5)c3)cc12` [DBt-10], the equilibrium dissociation constant (Kd) on DCAF1(WDR) (setting [4]) amounted to 147 nM. Also, in series [1] (read-out: GI50), the concentration for 50% growth inhibition (GI50) at 24 h was over 25000 nM. Moreover, the “max. BTK degradation (24h, %)” value at BTK [2] (Fig. 6b) is 94%. Further, the DC50 came to 137 nM at BTK [2] (setting [5]), 149 nM at BTK [2] (setting [6]) and 137 nM at BTK [2] (setting [7]). Besides, the “max. BTK degradation (%)” value at BTK [2] (TMD8 BTK-GFP/mCh) amounted to 94%. Also, on BTK [3] (TMD8, 6 h dose-response, immunoblot), the “concentration giving significant reduction of BTK” value is given as 2.5 µM.

Consider `Cc1nc(Nc2ncc(C(=O)Nc3c(C)cccc3Cl)s2)cc(N2CCC(OC3CCN(CCCCCCCC(=O)N4CCN(c5ccc6c(NCCN)nc(C7(c8ccc(Cl)cc8)CCCCC7)nc6c5)CC4)CC3)CC2)n1` [DDa-1], for which the 50% growth inhibitory concentration (GI50) at 24 h in series [1] (read-out: Abs GI50) and in series [1] (read-out: GI50 viability) was 1200 nM each time. The 50% degradation concentration (DC50) on BTK [2] (setting [6]) was 146 nM; on BTK [2] (setting [7]), 91.3 nM; on BTK [2] (TMD8 BTK-GFP/mCh, read-out: DC50 BTK-GFP degradation) it was 90 nM. In addition, the BTK degradation potency entry at BTK [3] (TMD8, 24 h, immunoblot) is given as “sub-µM potency”.

For the molecule `CC(=O)N1CCN(c2ccc3c(NCCN)nc(C4(c5ccc(Cl)cc5)CCCCC4)nc3c2)CC1` [compound 13], the 50% growth inhibitory concentration (GI50) at 24 h in series [1] (read-out: Abs GI50) was found to be 5220 nM; in series [1] (read-out: GI50), 5040 nM. Further, the “max. BTK degradation (%)” value at BTK [2] (TMD8 BTK-GFP/mCh) was determined as 0%. Besides, the 50% degradation concentration (DC50) on BTK [2] (setting [7]) was over 25000 nM. In addition, the “BTK reduction by control treatment” value on BTK [3] (TMD8, 1 µM, 1, 3, 6 and 24 h) was “did not reduce BTK at any time points”.

Broadly, the Kd is the equilibrium constant for the complex coming apart. Usually GI50 stands for the concentration giving 50% growth inhibition. For orientation: DC50 means the midpoint of the concentration-degradation curve.
